Entries after “also recorded” stand apart in the source; their conditions may differ.
Target: T1, F508del CFTR (Homo sapiens, UniProt P13569, DEL508-508)
T1 construct: expressed in transfected cells; host or cells: CFBE41o- cells overexpressing F508del CFTR and HS-YFP (YFP-H148Q/I152L), a gift from N. Pedemonte, Gaslini Institute
Experiment: F508del CFTR functional rescue (corrector) HS-YFP single-cell assay
Type: cell-based
Settings: CFBE41o- YFP-F508del cells; for F508del CFTR rescue (corrector) activity: 48 h incubation, 200 nM
Method: To verify the possibility that the title compounds may act as correctors in CFBE41o-, overexpressing F508del and the high sensitivity halide-sensing yellow fluorescent protein (HS-YFP) YFP-H148Q/I152L, we examined the effect of 48 h preincubation with vehicle or the TMA analogs or TMA or VX809 (Lumacaftor), as a positive control.
At the time of the assay, the correction of the F508del-CFTR function was evaluated in single-cell analysis by measuring the decrease in YFP fluorescence after the concomitant addition of extracellular iodide and the activating cocktail (20 μM forskolin and 5 μM VX770), in the presence or absence of the 10 μM CFTR inhibitor, CFTRinh-172. […] At least two derivatives show CFTR activity similar to that of the parent TMA.
The effect of TMA analogs on CFTR function was tested in CFBE41o- overexpressing F508del and the high sensitivity halide-sensing yellow fluorescent protein (HS-YFP) YFP-H148Q/I152L (a generous gift from N. Pedemonte, Gaslini Institute, Genova, Italy). YFP CF cells were seeded on round glass coverslips and preincubated for 48 h with vehicle or test compounds or VX809 or TMA. At the time of the assay, cells were washed in Dulbecco’s PBS (in mM: 137 NaCl, 2.7 KCl, 8.1 Na2HPO4, 1.5 KH2PO4, 1 CaCl2, and 0.5 MgCl2, pH 7.4) and subsequently incubated with a stimulation cocktail (20 μM forskolin and 5 μM VX770) in the presence and absence of 10 μM CFTR inhibitor, CFTRInh-172 (Sigma), for 30 min. The coverslips were then transferred on a Nikon TMD inverted microscope through a Nikon Fluor 40 objective. The signal was acquired with a Hamamatsu C2400–97 charge-coupled intensified video camera at a rate of 1 frame/3 s. The fluorescence coming from every single cell was analyzed by custom software (Spin, Vicenza, Italy). The results are presented as transformed data to obtain the percentage signal variation (Fx) relative to the time of addition of the stimulus, according to the equation: Fx = ([Ft − Fo]/Fo) × 100, where Ft and Fo are the fluorescence values at time t and at the time of stimulus addition, respectively. The assay of each sample consists of a continuous 99-s fluorescence reading with 30 s before and 69 s after injection of the iodide-rich Dulbecco’s PBS (in mM: 137 NaI, 2.7 KCl, 8.1 Na2HPO4, 1.5 KH2PO4, 1 CaCl2, and 0.5 MgCl2, pH 7.4) to reach a final iodide concentration of 50 mM [20]. The different sensitivity of HS-YFP toward iodide and chloride allows assays to be performed by measuring the transport of anions through the plasma membrane as changes in cell fluorescence. For this assay, cells expressing HS-YFP are equilibrated in a physiological chloride-rich saline solution (e.g., Dulbecco’s PBS). During fluorescence reading, cells are exposed to a high concentration of iodide. Iodide influx quenches the cell fluorescence with a rate that depends on the permeability of the cell membrane to halides, and therefore, on the activity of the anion channels or transporters.
Figure 4 Evaluation of different TMA analogs as F508del CFTR correctors in CFBE41o- YFP-F508del cells. Correction of F508del-CFTR function was assessed, in a single cell, by measuring the decrease in YFP fluorescence upon addition of extracellular iodide and with the activating cocktail, in the presence or absence of CFTR inhibitor, CFTRInh-172. Iodide influx was tested under control condition (vehicle) or after 48 h incubation with the correctors 200 nM or 1 μM VX809. The YFP fluorescence decay rate was calculated by fitting the fluorescence data with an exponential function of time courses. CFTR activity was obtained by the difference between the fluorescence decay rate of YFP in the presence and absence of CFTRInh-172. Fluorescence coming from every single cell of at least five cells per field was recorded. Each bar corresponds to the mean ± SEM of data points coming from at least three different experiments (5–10 different cells/each experiment). […]

T1 sequence (P13569 with tags, fused parts or gaps DEL508-508): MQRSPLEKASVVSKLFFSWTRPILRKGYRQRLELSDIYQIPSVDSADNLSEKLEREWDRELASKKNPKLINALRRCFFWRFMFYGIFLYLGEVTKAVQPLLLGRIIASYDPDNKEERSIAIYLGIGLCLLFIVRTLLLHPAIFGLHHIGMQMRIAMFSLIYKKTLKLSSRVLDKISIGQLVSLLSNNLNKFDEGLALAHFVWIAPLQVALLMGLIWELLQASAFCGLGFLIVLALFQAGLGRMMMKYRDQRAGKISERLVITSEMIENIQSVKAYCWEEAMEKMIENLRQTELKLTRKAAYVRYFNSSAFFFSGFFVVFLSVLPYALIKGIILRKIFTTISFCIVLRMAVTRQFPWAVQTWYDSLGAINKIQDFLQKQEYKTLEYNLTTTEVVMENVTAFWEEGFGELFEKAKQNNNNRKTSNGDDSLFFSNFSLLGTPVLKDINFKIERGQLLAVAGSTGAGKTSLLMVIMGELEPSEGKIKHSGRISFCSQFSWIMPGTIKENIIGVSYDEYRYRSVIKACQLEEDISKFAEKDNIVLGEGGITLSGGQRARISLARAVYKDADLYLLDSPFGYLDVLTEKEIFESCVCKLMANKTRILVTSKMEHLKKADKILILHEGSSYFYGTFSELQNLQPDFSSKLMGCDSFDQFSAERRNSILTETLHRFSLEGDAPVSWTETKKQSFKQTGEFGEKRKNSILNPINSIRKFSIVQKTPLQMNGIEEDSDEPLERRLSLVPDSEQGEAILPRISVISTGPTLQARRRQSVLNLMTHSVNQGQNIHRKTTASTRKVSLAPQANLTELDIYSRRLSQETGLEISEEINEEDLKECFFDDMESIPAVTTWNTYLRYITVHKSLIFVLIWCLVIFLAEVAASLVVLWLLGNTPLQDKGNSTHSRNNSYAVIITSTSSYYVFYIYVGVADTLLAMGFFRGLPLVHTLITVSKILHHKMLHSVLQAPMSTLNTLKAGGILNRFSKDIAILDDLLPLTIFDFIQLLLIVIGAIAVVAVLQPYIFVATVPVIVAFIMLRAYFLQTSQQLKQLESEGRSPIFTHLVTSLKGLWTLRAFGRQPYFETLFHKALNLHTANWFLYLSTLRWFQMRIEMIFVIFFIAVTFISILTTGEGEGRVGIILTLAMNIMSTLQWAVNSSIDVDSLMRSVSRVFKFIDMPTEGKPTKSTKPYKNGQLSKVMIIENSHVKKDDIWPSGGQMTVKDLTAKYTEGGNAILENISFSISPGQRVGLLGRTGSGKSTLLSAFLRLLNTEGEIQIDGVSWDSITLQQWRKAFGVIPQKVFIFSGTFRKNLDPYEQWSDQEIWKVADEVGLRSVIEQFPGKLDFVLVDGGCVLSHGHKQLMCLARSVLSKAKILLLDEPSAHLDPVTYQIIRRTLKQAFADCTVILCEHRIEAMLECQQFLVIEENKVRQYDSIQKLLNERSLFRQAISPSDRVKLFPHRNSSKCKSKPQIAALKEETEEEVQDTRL

`Cc1cc2c(-c3ccccc3)cc(=O)oc2c2c(C)coc12` [4-PhDMA] was tested, and the “F508del CFTR rescue (corrector) activity” value was “active; also recorded: most active derivatives of the series”, the “F508del CFTR rescue (corrector) activity” value (listed as 12) was “promising F508del CFTR rescue ability” and the “reduction in YFP fluorescence induced by iodide influx compared to vehicle” value (48 h treatment, representative time courses) was “greater reduction in YFP fluorescence”.
For `Cc1cc(=O)oc2c1cc(-c1ccccc1)c1occ(C)c12` [6-PhDMA], the “F508del CFTR rescue (corrector) activity” value was “inactive”.
For `Cc1cc(=O)oc2c1cc(-c1ccc(N)cc1)c1occ(C)c12` [pANDMA], the “F508del CFTR rescue (corrector) activity” value was “most active derivatives of the series” and the “F508del CFTR rescue (corrector) activity” value (listed as 25) was “promising F508del CFTR rescue ability”.

Reference: PMC9570109, “Improved Trimethylangelicin Analogs for Cystic Fibrosis: Design, Synthesis and Preliminary Screening” (International Journal of Molecular Sciences, 2022)
